Laboratory results from the NIST ThermoML archive (doi:10.1021/je034203p).

Assay: xn = mol fraction of the nth substance listed
Settings: 298.15 K, 101.3 kPa, Liquid; for viscosity: Capillary tube (Ostwald / Ubbelohde) method

ClC=C(Cl)Cl [trichloroethene] + CCCO
Settings	mass density [kg/m3]	viscosity [mPa·s]
x1 = 0.0848	864.2	1.705
x1 = 0.1725	928.6	1.486
x1 = 0.2627	992.9	1.281
x1 = 0.3567	1058.3	1.099
x1 = 0.4541	1122.4	0.9476
x1 = 0.5556	1188.3	0.8226
x1 = 0.6604	1254.3	0.7262
x1 = 0.7691	1320.6	0.6463
x1 = 0.8823	1387.5	0.5848
x1 = 1	1455.7	0.551

ClC=C(Cl)Cl [trichloroethene] + CCO
Settings	mass density [kg/m3]	viscosity [mPa·s]
x1 = 0.0673	852.4	1.047
x1 = 0.1397	918.2	0.9855
x1 = 0.2173	983.9	0.9272
x1 = 0.3018	1049.4	0.8651
x1 = 0.3932	1115.8	0.8082
x1 = 0.493	1182.4	0.7528
x1 = 0.602	1249.4	0.6984
x1 = 0.7215	1317.1	0.647
x1 = 0.8563	1385.6	0.5974
x1 = 1	1455.7	0.551

ClC=C(Cl)Cl [trichloroethene] + CCOC(C)=O
Settings	mass density [kg/m3]	viscosity [mPa·s]
x1 = 0.1086	944.2	0.4658
x1 = 0.2151	998.6	0.5023
x1 = 0.3189	1052.8	0.5302
x1 = 0.4219	1108.6	0.5564
x1 = 0.5226	1163.7	0.5685
x1 = 0.6215	1220.2	0.5705
x1 = 0.7185	1277.3	0.5681
x1 = 0.8143	1335.6	0.563
x1 = 0.908	1393.5	0.5589
x1 = 1	1455.7	0.551

ClC=C(Cl)Cl [trichloroethene] + CO
Settings	mass density [kg/m3]	viscosity [mPa·s]
x1 = 0.0477	853.7	0.5565
x1 = 0.1014	920.3	0.5667
x1 = 0.1616	985.5	0.5738
x1 = 0.2308	1052.1	0.5833
x1 = 0.3105	1117.9	0.595
x1 = 0.4033	1184.5	0.6017
x1 = 0.5125	1251.2	0.6021
x1 = 0.643	1318.4	0.5908
x1 = 0.8021	1386.3	0.575
x1 = 1	1455.7	0.551

ClC=C(Cl)Cl [trichloroethene] + COC(C)=O
Settings	mass density [kg/m3]	viscosity [mPa·s]
x1 = 0.09	972.6	0.4128
x1 = 0.182	1022.8	0.4443
x1 = 0.2755	1074.4	0.4699
x1 = 0.372	1125.3	0.4925
x1 = 0.4703	1177.5	0.5147
x1 = 0.5713	1230.9	0.5325
x1 = 0.6748	1283.9	0.5447
x1 = 0.7806	1341	0.555
x1 = 0.8886	1397.9	0.5598
x1 = 1	1455.7	0.551

ClC=C(Cl)Cl [trichloroethene] + Cc1ccccc1
Settings	mass density [kg/m3]	viscosity [mPa·s]
x1 = 0.1166	917.5	0.5592
x1 = 0.2291	975.6	0.5535
x1 = 0.3367	1033	0.5498
x1 = 0.4417	1090.9	0.5452
x1 = 0.5426	1149	0.5432
x1 = 0.64	1210.5	0.5445
x1 = 0.7348	1270.8	0.5454
x1 = 0.8257	1331.5	0.5477
x1 = 0.9147	1393.2	0.5495
x1 = 1	1455.7	0.551

ClC=C(Cl)Cl [trichloroethene] + ClC(Cl)(Cl)Cl
Settings	mass density [kg/m3]	viscosity [mPa·s]
x1 = 0.1068	1568.1	0.8568
x1 = 0.212	1552.3	0.8098
x1 = 0.315	1536.3	0.7632
x1 = 0.4171	1520.8	0.7186
x1 = 0.5178	1506.7	0.6826
x1 = 0.6175	1495.3	0.6511
x1 = 0.7152	1484.6	0.6226
x1 = 0.8114	1475	0.5965
x1 = 0.9064	1464.6	0.5727
x1 = 1	1455.7	0.551

ClC=C(Cl)Cl [trichloroethene] + c1ccccc1
Settings	mass density [kg/m3]	viscosity [mPa·s]
x1 = 0.0997	923.8	0.5937
x1 = 0.1995	981.7	0.584
x1 = 0.2988	1037.2	0.5761
x1 = 0.3987	1094.6	0.5682
x1 = 0.4986	1152.3	0.5621
x1 = 0.5991	1211	0.5573
x1 = 0.6991	1269.8	0.5573
x1 = 0.7989	1330.3	0.5517
x1 = 0.8998	1391.9	0.5499
x1 = 1	1455.7	0.551
